# Patent publication US20230226198A1, “Artemisinin Derivatives” (DA ZEN THERANOSTICS, INC., priority 2019, published 2023)
# pIC50: −log10 of the molar value. Like-named read-outs stand apart in the source and are kept apart here.
# Assays:
# [1] = system: Caki-1 cells (human clear cell renal cell carcinoma cells); assay: MTT cell viability / IC50 assay, Caki-1; type: cell-based
# Description: Cell culture: In the following examples, unless otherwise specified, all cell lines are purchased from American Type Culture Collection and cultured in American Type Culture Collection (ATCC)-recommended media, with fetal bovine serum (FBS) to a final concentration of 10% and 1× penicillin/streptomycin at 37° C. with 5% CO2 in a cell culture incubator, unless otherwise specified. Unless otherwise specified, culture is 2D. Where culture is 3D, low attachment plates are used, with the same media. C4-2B (ATCC® CRL-3315™, human prostate cancer cells of epithelial morphology) parental cell line and drug-resistant cells derived therefrom) are cultured in RPMI-1640 with 10% FBS. MDVR cells (an Enzalutamide-resistant variety of C4-2B prostate cancer cells formed as described below) are cultured as indicated for the parental C4-2B cells. Caki-1 cells (human clear cell renal cell carcinoma cells) are cultured in ATCC-formulated McCoy's 5a Medium Modified (ATCC Catalog No. 30-2007) with 10% FBS. PC3 cells (ATCC® CRL-1435™, a human prostate cancer cell line of epithelial morphology initiated from a bone metastasis of a grade IV prostatic adenocarcinoma) are cultured in F-12K with 10% FBS. 22RV1 Prostate Cancer (PC) cells (ATCC® CRL-2505™, a human prostate carcinoma cell line of epithelial morphology) are cultured in RPMI-1640 with 10% FBS. DU145 cells (ATCC® HTB-81™, a human cell line derived from a prostate-originating brain metastase, not detectably hormone sensitive, not expressing prostate antigen; forms adenocarcinoma grade II in nude mice) are cultured in ATCC-formulated Eagle's Minimum Essential Medium (EMEM, Catalog No. 30-2003). H446 cells (ATCC® HTB-171™, a human small cell carcinoma SC lung cancer (SCLC) cell line derived from a metastatic site) are cultured in RPMI-1640 with 10% FBS. H358 cells (ATCC® CRL-5807™, a human non-small cell lung cancer (NSCLC) cell line that expresses protein and RNA of SP-A, the major lung surfactant associated protein, and produces tumors in athymic nude mice) are cultured in RPMI-1640 Medium with 10% FBS. BxPC3 cells (ATCC® CRL-1687™, an adenocarcinoma-derived pancreatic cancer cell line that expresses pancreas cancer specific antigen and carcinoembryonic antigen and forms tumors in nude mice) are cultured in RPMI-1640 with 10% FBS.
# Example 1: A cell assay is performed exposing cells cultured as described above to various drugs indicated below for 24 hours unless otherwise indicated. Each of the cell lines is treated either with a THAD (e.g. DZ-DHA-ether, MI-148-bis-DHA), or for comparison, with the DHA mono-ester “DZ-DHA”; alternatively/additionally, DZ1 and/or unconjugated DHA may serve as comparants. For each cell line, the IC50 is determined for each drug in concentrations from 0 to 100 μM. […] In the controls (not shown in the figures), the cells are exposed to DMSO (vehicle) for a final concentration that equals the highest concentration of the drug tested, to a maximum concentration less than 0.1% v/v. 4 hours before culture end/SDS addition, 10 μL MTT (3-(4,5-Dimethyl-2-thiazolyl)-2,5-diphenyl-2H-tetrazolium bromide, Sigma-Aldrich) is added to wells containing the cells. At the end of culture, 100 μl 10% SDS is added and then the plate containing the cells is placed in a 37° C. cell culture incubator for 8 hours. The absorbance density of the supernatant is read on a 96-well microplate reader at wavelength 595 nm. The results of Caki-1 and MDRV are indicated in the table below along with preliminary results for further cancer cell lines (including, e.g., C4-2B, Abi-R, PC3, 22Rv1, DU145, H358, H446, BxPC3), and the corresponding curves are shown in FIG. 2A (Caki-1) and FIG. 2B (MDVR).
# [2] = system: pATM, γH2AX, cytochrome c; assay: Western blot analysis of DNA damage and mitochondrial markers; type: cell-based
# Description: The western blot analysis is performed as follows: Protein lysates (25 ug/sample) are separated by electrophoresis into the SDS-PAGE, which is then transferred to a nitrocellulose membrane for immunoblotting analysis. The protein membranes are blocked with 5% non-fat milk in PBS at room temperature (RT) for 1 h, followed by incubation with primary antibodies against proteins of interests diluted in 2% BSA in Phosphate Buffered Saline with Tween-20 (PBST) at 1:500 or 1:1000 at 4° C. overnight. The membranes are washed with PBST three times at 5 min for each wash on an orbital shaker, and then incubated with secondary antibodies against the species of the primary antibodies (i.e. anti-mouse or anti-rabbit) diluted in 5% non-fat milk in PBST for 1 h at RT with shaking. After the secondary antibody, the membranes are washed three times for 5 min each, and subjected to chemiluminescence imaging with ECL substrates (e.g. Pierce ECL Plus™, Thermo Fisher Scientific), to detect the protein bands of interest. Preliminary experiments indicate that the THAD as described herein may have an increased effect compared to DZ3a.
# [3] = system: C4-2B MDVR cells; assay: Annexin V / PI flow cytometry, cell death and apoptosis; type: cell-based, human; details: for induced cell death after pretreatment with OATP inhibitor: 2 h pretreatment with OATP inhibitor telmisartan (TMS); for induced cell death after pretreatment with Midivi or Nec-1: 2 h pretreatment with mitochondrial fission inhibitor (Midivi) or necroptosis inhibitor (Nec-1); for cell death / apoptosis (Annexin V / PI): C4-2B MDVR, e.g. 5 uM, 6 h
# Description: Example 5E: Cancer cells (here C4-2B MDVR) are pretreated with OATP inhibitor telmisartan (TMS), mevalonate (MVA), Midivi (Drp-1 inhibitor), and necrostatin-1 (Nec-1) for 2 h before treatment with vehicle, DHA, DZ-003 and/or a THAD (e.g. 5 uM each) for 6 h. Cells are subjected to annexin v staining (10 ul/10^6 cells) in the dark at RT for 15-20 min followed by PI staining at 1 mg/ml to determine the apoptosis of the cells based on the PI (red) and Annexin V (green) fluorescence by flow cytometry analysis using SONY SA3800 Spectral Analyzer. […] The vehicle and DHA treated cells remain viable (lower-left quadrant; blue population indicates live cells).
smiles,measurement,setting,value
C[C@@H]1CC[C@H]2[C@@H](C)C(OC(=O)CCCCCN3/C(=C/C=C4\CCCC(/C=C/C5=[N+](CCCCS(=O)(=O)[O-])c6ccccc6C5(C)C)=C4Cl)C(C)(C)c4ccccc43)O[C@@H]3OC4(C)CC[C@@H]1[C@]32OO4 (stereo in doubt) [DZ3a],pIC50,"[1]; Caki-1, 24 hours, relative IC50, read-out: IC50",4.91
same,pIC50,"[1]; Caki-1, unit inferred, read-out: IC50 (FIG. 2A description)",< 4.92
same,DNA damage (levels of pATM and γH2AX),[2],induces DNA damage
same,depletion of mitochondria (levels of cytochrome c),[2],depletes mitochondria
same,induced cell death after pretreatment with OATP inhibitor,[3],partially inhibited by an OATP inhibitor (TMA)
same,induced cell death after pretreatment with OATP inhibitor,[3]; listed as DZ-003,can be partially inhibited by an OATP inhibitor (TMS)
same,induced cell death after pretreatment with mevalonate (MVA),[3]; 2 h pretreatment with mevalonate (MVA),not so much by mevalonic acid (MVA)
same,induced cell death after pretreatment with Midivi or Nec-1,[3],blocked by mitochondrial fission (Midivi) and necroptosis inhibitors (Nec-1)
same,induced cell death after pretreatment with Midivi or Nec-1,[3]; listed as DZ-003,can be blocked by mitochondrial fission (Midivi) and necroptosis inhibitor (Nec-1)
same,cell death / apoptosis (Annexin V / PI),[3],induces cell death
same,cell death / apoptosis (Annexin V / PI),[3]; listed as DZ-003,induced cell death
